From patent US6083964A, “Optical resolution of racemic aminoalkylpyridine anticonvulsants and (+) aminoalkylpyridine enantiomers as highly potent orally effective anticonvulsant drugs and excitatory amino acid antagonists” (K and K Biosciences, Inc., priority 1999, dated 2000)

Key:
[1] = test system: neurotoxicity (rotorod ataxia) in mice; experiment: Neurotoxicity, rotorod ataxia test, mice, i.p.; parameters: species or system mouse (male Carworth Farms #1); conditions: mouse, in vivo, ip
Protocol: (§1) Neurotoxicity is determined by the rotorod ataxia test in mice and by the positional sense test and gait and stance test in the rat. The following Table 2 presents the results of these anticonvulsant tests with respect to several (+) and (-) AAP enantiomeric compounds derived from optical resolution of racemic AAPs of the present invention. This Table 2 identifies the specific compounds tested by their chemical name and provides the test model, the route of administration, the animal species used, and the anticonvulsant activity and toxicity in terms of ED50 and TD50 values, (the median effective and toxic dose respectively), when intraperitoneally administered to mice, and when orally administered to rats. In mice, i.p.: All compounds are emulsified in 0.5% methylcellulose. The solvent has been tested for anticonvulsant and toxic effects and found to introduce no significant bias into the testing of anticonvulsant activity. The compounds are administered intraperitoneally in a volume of 0.01 ml/gm to male Carworth Farms #1 mice weighing about 20 gm. All compounds are tested at least at three dose levels (30, 100 and 300 mg/kg) at 30 minutes and 4 hours after their administration. Neurotoxicity is evaluated in mice by the rotorod ataxia test. The animal is placed on a wooden rod of 1 and 1/8 diameter rotating at 6 rpm. Normal mice can remain on a rod rotating at this speed indefinitely. […] Anticonvulsant Quantification in Mice i.p.: The ED50 values are determined in the MES, scMet and rotorod ataxia test. To determine the ED50 values, five logarithmically spaced doses of the test compound are administered to animals (male Carworth Farms #1 mice) in groups of eight, to cover 0-100% protection, and the dose required to protect 50% of the animals (ED50) together with its 95% confidence limits, is determined graphically.

[2] = test system: neurological deficit in rats; experiment: Neurological deficit, positional sense test and gait and stance test, rats, p.o.; parameters: species or system rat (Sprague-Dawley); conditions: rat, in vivo, po
Protocol: (§2) Neurotoxicity is determined by the rotorod ataxia test in mice and by the positional sense test and gait and stance test in the rat. The following Table 2 presents the results of these anticonvulsant tests with respect to several (+) and (-) AAP enantiomeric compounds derived from optical resolution of racemic AAPs of the present invention. This Table 2 identifies the specific compounds tested by their chemical name and provides the test model, the route of administration, the animal species used, and the anticonvulsant activity and toxicity in terms of ED50 and TD50 values, (the median effective and toxic dose respectively), when intraperitoneally administered to mice, and when orally administered to rats. […] This species will be the subject of the complete anticonvulsant quantification test evaluation as described above, but after oral (gavage) administration of the candidate compound. […] Neurological deficit in rats is examined by the positional sense test and gait and stance test. […] Inability to do so rapidly indicates a neurologic deficit. In the gait and stance test, a neurologic deficit is indicated by a circular or a zigzag gait, ataxia, abnormal spread of the legs, abnormal body posture, tremor, hyperactivity, lack of exploratory behavior, somnolence, stupor, or catalepsy.

hippocampal kindled rats [3] = experiment: Hippocampal kindled rat model, i.p.; assay type: in vivo; parameters: key to Seizure Score ± S.E.M.: Racine seizure class scale; class 5 = rearing and falling; conditions: for seizure score and afterdischarge duration (in words): hippocampal kindled rat
Text: "Kindling" refers to the process whereby repeated administration of an initially subconvulsive electrical stimulus results in progressive intensification of epileptic discharge culminating in a generalized seizure. Kindling can be induced by electrical stimulation of many sites in the brain, especially in "limbic" areas, which include amygdala, hippocampus, and entorhinal cortex [Racine, R., Neurosurgery, 3, 234-252 (1978)]. Kindling is reliably produced by a one second train of 60 Hz square wave stimuli of one millisecond duration at current levels which initially produce only a slight afterdischarge (AD), but no behavioral response. Repeated stimulation, typically once daily, results in a progressive increase in AD amplitude, duration and complexity with subsequent spread to other brain areas culminating in a fully generalized motor seizure. [Racine, R. J. and Zaide, J., In "Mechanisms, the Continuing Evolution of the Limbic System Concept" (K. E. Livingston and O. Hornykiewicz, eds.), Plenum Press, pp. 457-493, 1978.
The development of kindling in the rat has been characterized by five (1 to 5) behavioral and electrographic "classes". The behavior in classes 1 (facial clonus) and 2 (head nodding) mimics that found in human complex partial seizures; the behavior in other classes would be consistent with limbic seizures evolving to generalized motor seizures. An animal is considered to be fully kindled once the enhanced sensitivity has developed, as evidenced by a class 5 seizure (rearing and falling).
(§3) The (+) AAP enantiomer, compound 1 in Table 1, was tested in the hippocampal kindled rat, by the i.p. route. […]
The (-) AAP enantiomer, compound 2 in Table 1, was also tested in the hippocampal kindled rat, by the i.p. route.

[4] = Neurotoxicity, rotorod ataxia test, mice, i.p.; parameters: species or system mouse (male Carworth Farms #1); conditions: mouse, in vivo, ip, TD50
Protocol: as §1

[5] = Neurological deficit, positional sense test and gait and stance test, rats, p.o.; parameters: species or system rat (Sprague-Dawley); conditions: rat, in vivo, po
Protocol: as §2

hippocampal kindled rats [6] = experiment: Toxicity in hippocampal kindled rats, i.p.; assay type: in vivo; conditions: 100 mg/kg i.p., 45 min
Protocol: as §3

[7] = 100 mg/kg i.p., 15 min, Table 3 value * significantly different from control
[8] = 100 mg/kg i.p., 45 min, Table 3 value * significantly different from control
[9] = 100 mg/kg i.p., 75 min, Table 3 value * significantly different from control
[10] = 100 mg/kg i.p., 105 min, Table 3 value * significantly different from control

## CC(Nc1ccc(Cl)cc1)c1ccncc1 (single isomer, unassigned; (-)) [Compound 2, (-) N-(4-Chlorophenyl)-1-(4-pyridyl)ethylamine]
[1]
  TD50: 219.4 mg/kg
[2]
  TD50: > 500.0 mg/kg
Hippocampal kindled rats [3]; 100 mg/kg i.p., 15 min
  Afterdischarge Duration (sec) ± S.E.M.: 69.88 ± 8.29 s
Hippocampal kindled rats [3]; [7]
  Seizure Score ± S.E.M.: 4.63 ± 0.38
Hippocampal kindled rats [3]; 100 mg/kg i.p., 45 min
  Afterdischarge Duration (sec) ± S.E.M.: 74.88 ± 10.31 s
Hippocampal kindled rats [3]; [8]
  Seizure Score ± S.E.M.: 4.25 ± 0.49
Hippocampal kindled rats [3]; 100 mg/kg i.p., 75 min
  Afterdischarge Duration (sec) ± S.E.M.: 82.50 ± 6.11 s
Hippocampal kindled rats [3]; [9]
  Seizure Score ± S.E.M.: 4.75 ± 0.16
Hippocampal kindled rats [3]; 100 mg/kg i.p., 105 min
  Afterdischarge Duration (sec) ± S.E.M.: 75.75 ± 11.71 s
Hippocampal kindled rats [3]; [10]
  Seizure Score ± S.E.M.: 4.50 ± 0.50
Hippocampal kindled rats [3]; 100 mg/kg i.p., 135 min
  Afterdischarge Duration (sec) ± S.E.M.: 82.63 ± 5.04 s
  Seizure Score ± S.E.M.: 4.75 ± 0.16
Hippocampal kindled rats [3]; 100 mg/kg i.p., 165 min
  Afterdischarge Duration (sec) ± S.E.M.: 79.00 ± 12.92 s
  Seizure Score ± S.E.M.: 4.13 ± 0.61
Hippocampal kindled rats [3]; 100 mg/kg i.p., 195 min
  # Protected/# Tested: 2/8
  Afterdischarge Duration (sec) ± S.E.M.: 69.25 ± 11.15 s
  Seizure Score ± S.E.M.: 3.88 ± 0.67
Hippocampal kindled rats [3]; 100 mg/kg i.p., 225 min
  Afterdischarge Duration (sec) ± S.E.M.: 83.75 ± 5.17 s
  Seizure Score ± S.E.M.: 4.25 ± 0.16
Hippocampal kindled rats [3]; 100 mg/kg i.p., 255 min
  Afterdischarge Duration (sec) ± S.E.M.: 73.13 ± 11.97 s
  Seizure Score ± S.E.M.: 4.00 ± 0.50
Hippocampal kindled rats [3]; 100 mg/kg i.p., 285 min
  Afterdischarge Duration (sec) ± S.E.M.: 84.50 ± 6.76 s
  Seizure Score ± S.E.M.: 4.83 ± 0.17
Hippocampal kindled rats [3]; i.p.
  activity in hippocampal kindled rat (in words): only moderate activity

## CC(Nc1ccc(Cl)cc1)c1ccncc1 (single isomer, unassigned; (+)) [Compound 1, (+) N-(4-Chlorophenyl)-1-(4-pyridyl)ethylamine]
[4]
  TD50: 149 mg/kg
[5]
  TD50: > 500 mg/kg
Hippocampal kindled rats [3]; 25 mg/kg i.p., 15 min
  Afterdischarge Duration (sec) ± S.E.M.: 76.63 ± 7.34 s
  Seizure Score ± S.E.M.: 4.63 ± 0.18
Hippocampal kindled rats [3]; 25 mg/kg i.p., 45 min
  # Protected/# Tested: 2/8
  Afterdischarge Duration (sec) ± S.E.M.: 54.63 ± 12.54 s
  Seizure Score ± S.E.M.: 3.75 ± 0.65
Hippocampal kindled rats [3]; 25 mg/kg i.p., 75 min
  Afterdischarge Duration (sec) ± S.E.M.: 62.75 ± 10.46 s
  Seizure Score ± S.E.M.: 4.13 ± 0.48
Hippocampal kindled rats [3]; 25 mg/kg i.p., 105 min
  Afterdischarge Duration (sec) ± S.E.M.: 74.75 ± 6.44 s
  Seizure Score ± S.E.M.: 5.00 ± 0.00
Hippocampal kindled rats [3]; 25 mg/kg i.p., 135 min
  Seizure Score ± S.E.M.: 4.50 ± 0.19
Hippocampal kindled rats [3]; 50 mg/kg i.p., 15 min
  Afterdischarge Duration (sec) ± S.E.M.: 56.43 ± 7.60 s
  Seizure Score ± S.E.M.: 3.75 ± 0.53
Hippocampal kindled rats [3]; 50 mg/kg i.p., 45 min
  # Protected/# Tested: 2/8
  Afterdischarge Duration (sec) ± S.E.M.: 63.38 ± 10.75 s
  Seizure Score ± S.E.M.: 4.13 ± 0.40
Hippocampal kindled rats [3]; 50 mg/kg i.p., 75 min
  Afterdischarge Duration (sec) ± S.E.M.: 63.14 ± 6.38 s
  Seizure Score ± S.E.M.: 4.71 ± 0.18
Hippocampal kindled rats [3]; 50 mg/kg i.p., 105 min
  Afterdischarge Duration (sec) ± S.E.M.: 74.57 ± 11.58 s
  Seizure Score ± S.E.M.: 4.71 ± 0.18
Hippocampal kindled rats [3]; 50 mg/kg i.p., 135 min
  Afterdischarge Duration (sec) ± S.E.M.: 61.43 ± 12.97 s
  Seizure Score ± S.E.M.: 4.00 ± 0.69
Hippocampal kindled rats [3]; 50 mg/kg i.p., 165 min
  Afterdischarge Duration (sec) ± S.E.M.: 73.14 ± 9.41 s
  Seizure Score ± S.E.M.: 4.57 ± 0.20
Hippocampal kindled rats [3]; 75 mg/kg i.p., 15 min
  Afterdischarge Duration (sec) ± S.E.M.: 63.29 ± 6.70 s
Hippocampal kindled rats [3]; 75 mg/kg i.p., 15 min, * significantly different from control
  Seizure Score ± S.E.M.: 2.86 ± 0.59
Hippocampal kindled rats [3]; 75 mg/kg i.p., 45 min
  # Protected/# Tested: 5/7
  Afterdischarge Duration (sec) ± S.E.M.: 55.43 ± 10.39 s
Hippocampal kindled rats [3]; 75 mg/kg i.p., 45 min, * significantly different from control
  Seizure Score ± S.E.M.: 2.43 ± 0.69
Hippocampal kindled rats [3]; 75 mg/kg i.p., 75 min
  Afterdischarge Duration (sec) ± S.E.M.: 74.57 ± 10.36 s
Hippocampal kindled rats [3]; 75 mg/kg i.p., 75 min, * significantly different from control
  Seizure Score ± S.E.M.: 2.86 ± 0.59
Hippocampal kindled rats [3]; 75 mg/kg i.p., 105 min
  Afterdischarge Duration (sec) ± S.E.M.: 68.57 ± 5.52 s
Hippocampal kindled rats [3]; 75 mg/kg i.p., 105 min, * significantly different from control
  Seizure Score ± S.E.M.: 3.86 ± 0.34
Hippocampal kindled rats [3]; 75 mg/kg i.p., 135 min
  Afterdischarge Duration (sec) ± S.E.M.: 65.00 ± 4.12 s
  Seizure Score ± S.E.M.: 4.14 ± 0.26
Hippocampal kindled rats [3]; 100 mg/kg i.p., 15 min
  Afterdischarge Duration (sec) ± S.E.M.: 63.43 ± 11.37 s
Hippocampal kindled rats [3]; [7]
  Seizure Score ± S.E.M.: 2.00 ± 0.69
Hippocampal kindled rats [3]; 100 mg/kg i.p., 45 min
  # Protected/# Tested: 6/7
  Afterdischarge Duration (sec) ± S.E.M.: 63.29 ± 4.76 s
Hippocampal kindled rats [3]; [8]
  Seizure Score ± S.E.M.: 2.00 ± 0.58
Hippocampal kindled rats [3]; 100 mg/kg i.p., 75 min
  Afterdischarge Duration (sec) ± S.E.M.: 75.43 ± 9.70 s
Hippocampal kindled rats [3]; [9]
  Seizure Score ± S.E.M.: 2.29 ± 0.61
Hippocampal kindled rats [3]; 100 mg/kg i.p., 105 min
  Afterdischarge Duration (sec) ± S.E.M.: 71.00 ± 5.35 s
Hippocampal kindled rats [3]; [10]
  Seizure Score ± S.E.M.: 2.29 ± 0.71
Hippocampal kindled rats [3]; Rattus norvegicus, ip, 0.75 h, hippocampal kindled rats, 45 min, 95% C.I. printed b332
  ED50: 54.9 mg/kg
Hippocampal kindled rats [3]; dose response, hippocampal kindled rats, i.p., 45 min
  Slope: 2.93 ± 1.16
Hippocampal kindled rats [3]; i.p.
  seizure score and afterdischarge duration (in words): significantly reduced seizure score and afterdischarge duration and the effect was dose-dependent
Hippocampal kindled rats [3]; i.p., listed as (+) N-(4-chlorophenyl)-1-(4-pyridyl)ethylamine
  seizure score and afterdischarge duration (in words): significantly reduced from that of the control
Hippocampal kindled rats [6]
  toxic (number of animals): 2/7
